Results published in US9238656B2, “Imidazo[4,5-b]pyridine derivatives as ALK and JAK modulators for the treatment of proliferative disorders” (priority 2012, dated 2016).
Where a name gives a salt, the structure may show the parent alone.

Key:
[1] = target: baculovirus-expressed JAK2 kinase (Homo sapiens, UniProt O60674); test: biochemical; settings: 0.2 μM ATP; read-out: JAK2 Potency
How it was run: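 Time-resolved fluorescence kinase assay using 15 ng/mL baculovirus-expressed JAK2 on Neutravidin-captured biotinylated 15-mer peptide substrate, reaction 20 min at room temperature. IC50 from percent inhibition versus log concentration, sigmoidal variable-slope fit.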

[2] = target: baculovirus-expressed ALK (Homo sapiens, UniProt Q9UM73); test: ALK kinase inhibition, TRF/ELISA; type: biochemical; settings: read-out: ALK Potency
Sequence of baculovirus-expressed ALK (Q9UM73 19-1620): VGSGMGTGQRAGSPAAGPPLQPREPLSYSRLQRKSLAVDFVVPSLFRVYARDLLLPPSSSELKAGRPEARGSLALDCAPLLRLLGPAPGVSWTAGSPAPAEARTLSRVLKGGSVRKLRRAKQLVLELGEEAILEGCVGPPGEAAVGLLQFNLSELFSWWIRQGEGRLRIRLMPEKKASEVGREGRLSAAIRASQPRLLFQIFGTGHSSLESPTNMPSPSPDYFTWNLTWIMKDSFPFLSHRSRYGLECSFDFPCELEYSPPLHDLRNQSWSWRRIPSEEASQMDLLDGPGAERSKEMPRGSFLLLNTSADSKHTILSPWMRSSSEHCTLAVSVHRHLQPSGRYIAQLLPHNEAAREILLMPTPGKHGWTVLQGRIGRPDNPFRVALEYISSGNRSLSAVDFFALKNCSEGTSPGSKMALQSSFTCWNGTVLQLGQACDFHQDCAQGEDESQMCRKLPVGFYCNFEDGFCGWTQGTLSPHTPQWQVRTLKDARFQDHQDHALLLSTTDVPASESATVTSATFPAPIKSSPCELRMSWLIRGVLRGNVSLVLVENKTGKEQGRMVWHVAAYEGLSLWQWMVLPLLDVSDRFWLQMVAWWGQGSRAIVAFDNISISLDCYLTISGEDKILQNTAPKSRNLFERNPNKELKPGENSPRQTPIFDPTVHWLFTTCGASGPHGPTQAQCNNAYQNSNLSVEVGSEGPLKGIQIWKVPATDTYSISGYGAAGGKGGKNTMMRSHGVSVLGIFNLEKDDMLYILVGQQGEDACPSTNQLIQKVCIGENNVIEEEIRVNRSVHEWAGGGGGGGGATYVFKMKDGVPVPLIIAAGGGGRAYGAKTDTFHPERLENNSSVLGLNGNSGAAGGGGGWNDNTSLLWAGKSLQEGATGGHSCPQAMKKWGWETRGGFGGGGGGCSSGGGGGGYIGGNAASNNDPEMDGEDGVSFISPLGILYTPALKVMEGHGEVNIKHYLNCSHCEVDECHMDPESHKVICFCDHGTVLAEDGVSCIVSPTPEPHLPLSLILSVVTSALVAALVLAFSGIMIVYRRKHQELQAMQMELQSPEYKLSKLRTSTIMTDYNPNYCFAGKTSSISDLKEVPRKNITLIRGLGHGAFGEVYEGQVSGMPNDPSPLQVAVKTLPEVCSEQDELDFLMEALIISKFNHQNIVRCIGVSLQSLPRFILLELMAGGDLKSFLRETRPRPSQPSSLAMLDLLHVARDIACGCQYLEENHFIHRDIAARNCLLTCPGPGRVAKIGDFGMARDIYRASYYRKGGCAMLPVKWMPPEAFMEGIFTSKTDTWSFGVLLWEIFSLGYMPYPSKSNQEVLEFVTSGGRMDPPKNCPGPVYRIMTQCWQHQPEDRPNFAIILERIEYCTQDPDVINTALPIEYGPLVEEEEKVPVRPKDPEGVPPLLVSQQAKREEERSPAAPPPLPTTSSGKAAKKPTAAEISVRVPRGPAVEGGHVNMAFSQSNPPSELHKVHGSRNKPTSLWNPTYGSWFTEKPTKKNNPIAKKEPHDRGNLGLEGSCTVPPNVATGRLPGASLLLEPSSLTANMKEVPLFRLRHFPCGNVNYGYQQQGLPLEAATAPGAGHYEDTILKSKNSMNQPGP
How it was run: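 Plates were coated with GST-PLC-γ substrate (10 μg/mL) and the reaction was started with 30 ng/mL ALK, running 15 min at 37° C. Phosphotyrosine was detected by time-resolved fluorescence with Eu-labeled PT66 antibody. IC50s came from variable-slope sigmoidal fits of percent inhibition versus log concentration.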

Sequence of baculovirus-expressed JAK2 kinase (O60674 whole entry): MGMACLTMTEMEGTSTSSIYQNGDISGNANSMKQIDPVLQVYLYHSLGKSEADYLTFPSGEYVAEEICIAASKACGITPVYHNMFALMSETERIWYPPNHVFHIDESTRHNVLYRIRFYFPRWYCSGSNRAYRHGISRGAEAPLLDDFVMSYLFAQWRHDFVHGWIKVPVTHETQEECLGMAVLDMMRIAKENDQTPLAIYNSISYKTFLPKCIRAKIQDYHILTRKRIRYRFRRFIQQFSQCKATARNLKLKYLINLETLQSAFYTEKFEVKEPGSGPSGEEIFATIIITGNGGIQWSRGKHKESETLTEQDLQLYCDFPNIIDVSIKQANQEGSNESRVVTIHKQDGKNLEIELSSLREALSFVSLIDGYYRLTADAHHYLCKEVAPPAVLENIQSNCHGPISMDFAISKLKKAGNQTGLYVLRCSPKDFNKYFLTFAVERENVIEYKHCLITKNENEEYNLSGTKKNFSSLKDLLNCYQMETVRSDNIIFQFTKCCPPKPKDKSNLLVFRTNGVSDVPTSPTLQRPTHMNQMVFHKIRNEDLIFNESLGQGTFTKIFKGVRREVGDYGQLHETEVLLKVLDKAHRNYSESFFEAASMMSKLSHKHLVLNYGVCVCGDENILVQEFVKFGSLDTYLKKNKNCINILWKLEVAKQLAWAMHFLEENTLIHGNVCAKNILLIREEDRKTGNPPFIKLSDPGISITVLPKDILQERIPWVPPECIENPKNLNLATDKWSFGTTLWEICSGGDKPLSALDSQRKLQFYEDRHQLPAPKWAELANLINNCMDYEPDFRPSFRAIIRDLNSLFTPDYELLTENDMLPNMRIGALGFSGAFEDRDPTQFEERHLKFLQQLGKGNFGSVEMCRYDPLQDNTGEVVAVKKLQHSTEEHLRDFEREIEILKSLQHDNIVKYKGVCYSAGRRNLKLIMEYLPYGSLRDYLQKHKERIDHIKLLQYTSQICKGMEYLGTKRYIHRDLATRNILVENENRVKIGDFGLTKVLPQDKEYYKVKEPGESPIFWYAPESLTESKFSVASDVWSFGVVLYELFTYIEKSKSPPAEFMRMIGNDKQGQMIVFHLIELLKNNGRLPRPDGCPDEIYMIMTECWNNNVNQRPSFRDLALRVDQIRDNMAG

IC50 [1] [nM]	melting point [°C]	IC50 [2] [nM]	SMILES
< 100	184 to 185	< 100	NC(=O)[C@@H]1[C@H](Nc2c(Br)cnc3[nH]c(-c4cccc(CN5CCOCC5)c4)nc23)[C@H]2C=C[C@@H]1C2 [Compound LXXXI, (1S,2S,3R,4R)-3-[6-Bromo-2-(3-morpholin-4-ylmethyl-phenyl)-3H-imidazo[4,5-b]pyridin-7-ylamino]-bicyclo[2.2.1]hept-5-ene-2-carboxylic acid amide]
1000 to 10000	190	1000 to 10000	NC(=O)[C@@H]1[C@H](Nc2c(Br)cnc3[nH]c(-c4cccnc4N4CCCC4)nc23)[C@H]2C=C[C@@H]1C2 [Compound CV, (1S,2S,3R,4R)-3-[6-Bromo-2-(2-pyrrolidin-1-yl-pyridin-3-yl)-3H-imidazo[4,5-b]pyridin-7-ylamino]-bicyclo[2.2.1]hept-5-ene-2-carboxylic acid amide]
> 10000	185 to 190	> 10000	COc1cc(N(C)C)ccc1-c1nc2c(N[C@H]3[C@@H](C(N)=O)[C@@H]4C=C[C@H]3C4)ccnc2[nH]1 [Compound XCIII, (1S,2S,3R,4R)-3-[2-(4-Dimethylamino-2-methoxy-phenyl)-3H-imidazo[4,5-b]pyridin-7-ylamino]-bicyclo[2.2.1]hept-5-ene-2-carboxylic acid amide]
< 100	231 to 232	100 to 1000	NC(=O)[C@@H]1[C@H](Nc2c(Br)cnc3[nH]c(-c4ccoc4)nc23)[C@H]2C=C[C@@H]1C2 [Compound CVIII, (1S,2S,3R,4R)-3-(6-Bromo-2-furan-3-yl-3H-imidazo[4,5-b]pyridin-7-ylamino)-bicyclo[2.2.1]hept-5-ene-2-carboxylic acid amide]
< 100	238 to 241	< 100	NC(=O)[C@@H]1[C@H](Nc2c(Br)cnc3[nH]c(-c4ccsc4)nc23)[C@H]2C=C[C@@H]1C2 [Compound CXI, (1S,2S,3R,4R)-3-(6-Bromo-2-thiophen-3-yl-3H-imidazo[4,5-b]pyridin-7-ylamino)-bicyclo[2.2.1]hept-5-ene-2-carboxylic acid amide]
1000 to 10000	200 to 204	> 10000	CN(C)c1cccc(-c2nc3c(N[C@H]4[C@@H](C(N)=O)[C@@H]5C=C[C@H]4C5)ccnc3[nH]2)c1 [Compound LXXXVII, (1S,2S,3R,4R)-3-[2-(3-Dimethylamino-phenyl)-3H-imidazo[4,5-b]pyridin-7-ylamino]-bicyclo[2.2.1]hept-5-ene-2-carboxylic acid amide]
1000 to 10000	240 to 244	> 10000	NC(=O)[C@@H]1[C@H](Nc2ccnc3[nH]c(-c4cccc(CN5CCOCC5)c4)nc23)[C@H]2C=C[C@@H]1C2 [Compound XCI, (1S,2S,3R,4R)-3-[2-(3-Morpholin-4-ylmethyl-phenyl)-3H-imidazo[4,5-b]pyridin-7-ylamino]-bicyclo[2.2.1]hept-5-ene-2-carboxylic acid amide]
100 to 1000	186 to 187	1000 to 10000	COc1ccc(-c2nc3c(N[C@H]4[C@@H](C(N)=O)[C@@H]5C=C[C@H]4C5)c(Cl)cnc3[nH]2)c(C2CCN(C[C@@H](C)O)CC2)c1 [Compound XXXI]
1000 to 10000	236 to 238	> 10000	Cn1cc(-c2nc3c(N[C@H]4[C@@H](C(N)=O)[C@@H]5C=C[C@H]4C5)ccnc3[nH]2)cn1 [XCIV, (1S,2S,3R,4R)-3-[2-(1-Methyl-1H-pyrazol-4-yl)-3H-imidazo[4,5-b]pyridin-7-ylamino]-bicyclo[2.2.1]hept-5-ene-2-carboxylic acid amide]
< 100	215 to 218	–	CN1CCN(c2ccc(-c3nc4c(N[C@H]5[C@@H](C(N)=O)[C@@H]6C=C[C@H]5C6)c(Br)cnc4[nH]3)cc2)CC1 [Compound LXXVIII, (1S,2S,3R,4R)-3-{6-Bromo-2-[4-(4-methyl-piperazin-1-yl)-phenyl]-3H-imidazo[4,5-b]pyridin-7-ylamino}-bicyclo[2.2.1]hept-5-ene-2-carboxylic acid amide]
1000 to 10000	245 to 251	> 10000	CN(C)c1ccc(-c2nc3c(N[C@H]4[C@@H](C(N)=O)[C@@H]5C=C[C@H]4C5)ccnc3[nH]2)cc1 [Compound LXXXVI, (1S,2S,3R,4R)-3-[2-(4-Dimethylamino-phenyl)-3H-imidazo[4,5-b]pyridin-7-ylamino]-bicyclo[2.2.1]hept-5-ene-2-carboxylic acid amide]
< 100	293 to 295	< 100	Cn1cccc1-c1nc2c(N[C@H]3[C@@H](C(N)=O)[C@@H]4C=C[C@H]3C4)c(Br)cnc2[nH]1 [Compound CIX, (1S,2S,3R,4R)-3-[6-Bromo-2-(1-methyl-1H-pyrrol-2-yl)-3H-imidazo[4,5-b]pyridin-7-ylamino]-bicyclo[2.2.1]hept-5-ene-2-carboxylic acid amide]
< 100	232 to 235	< 100	COc1cc(C2CCN(C)CC2)ccc1-c1nc2c(N[C@H]3[C@@H](C(N)=O)[C@@H]4C=C[C@H]3C4)c(Cl)cnc2[nH]1 [Compound CXVII, (1S,2S,3R,4R)-3-{6-Chloro-2-[2-methoxy-4-(1-methyl-piperidin-4-yl)-phenyl]-3H-imidazo[4,5-b]pyridin-7-ylamino}-bicyclo[2.2.1]hept-5-ene-2-carboxylic acid amide]
< 100	123 to 126	< 100	C=CCc1ccc(-c2nc3c(N[C@H]4[C@@H](C(N)=O)[C@@H]5C=C[C@H]4C5)c(Cl)cnc3[nH]2)c(OC)c1 [Compound LVI, (1S,2S,3R,4R)-3-[2-(4-Allyl-2-methoxy-phenyl)-6-chloro-3H-imidazo[4,5-b]pyridine-7-ylamino]-bicyclo[2.2.1]hept-5-ene-2-carboxylic acid amide]
< 100	> 300	100 to 1000	NC(=O)[C@@H]1[C@H](Nc2c(Br)cnc3[nH]c(-c4cncnc4)nc23)[C@H]2C=C[C@@H]1C2 [Compound CVII, (1S,2S,3R,4R)-3-(6-Bromo-2-pyrimidin-5-yl-3H-imidazo[4,5-b]pyridin-7-ylamino)-bicyclo[2.2.1]hept-5-ene-2-carboxylic acid amide]
< 100	283 to 284	–	NC(=O)[C@@H]1[C@H](Nc2c(Br)cnc3[nH]c(-c4ccc(N5CCOCC5)cc4)nc23)[C@H]2C=C[C@@H]1C2 [Compound LXXIX, (1S,2S,3R,4R)-3-[6-Bromo-2-(4-morpholin-4-yl-phenyl)-3H-imidazo[4,5-b]pyridin-7-ylamino]-bicyclo[2.2.1]hept-5-ene-2-carboxylic acid amide]
–	217 to 219	–	NC(=O)[C@@H]1[C@H](Nc2c(Br)cnc3[nH]c(-c4ccc(CN5CCOCC5)cc4)nc23)[C@H]2C=C[C@@H]1C2 (as salt: sodium) [Compound LXXX, (1S,2S,3R,4R)-3-[6-Bromo-2-(4-morpholin-4-ylmethyl-phenyl)-3H-imidazo[4,5-b]pyridin-7-ylamino]-bicyclo[2.2.1]hept-5-ene-2-carboxylic acid amide]
< 100	–	100 to 1000	NC(=O)[C@@H]1[C@H](Nc2c(Br)cnc3[nH]c(-c4cccc(Cl)c4)nc23)[C@H]2C=C[C@@H]1C2 [Compound CXLII, (1S,2S,3R,4R)-3-[6-Bromo-2-(3-chloro-phenyl)-3H-imidazo[4,5-b]pyridin-7-ylamino]-bicyclo[2.2.1]hept-5-ene-2-carboxylic acid amide]
1000 to 10000	–	< 100	COc1cc(CN2CCOCC2)ccc1-c1nc2c(N[C@@H]3CCCC[C@H]3NS(C)(=O)=O)c(Cl)cnc2[nH]1 [Compound LXX, N-{(1R,2R)-2-[6-Chloro-2-(2-methoxy-4-morpholin-4-ylmethyl-phenyl)-3H-imidazo[4,5-b]pyridine-7-ylamino]-cyclohexyl}-methanesulfonamide]
< 100	–	< 100	COc1cccc(-c2nc3c(N[C@H]4[C@@H](C(N)=O)[C@@H]5C=C[C@H]4C5)c(Cl)cnc3[nH]2)n1 [Compound CXXIV, (1S,2S,3R,4R)-3-[6-Chloro-2-(6-methoxy-pyridin-2-yl)-3H-imidazo[4,5-b]pyridin-7-ylamino]-bicyclo[2.2.1]hept-5-ene-2-carboxylic acid amide]
< 100	–	< 100	Cc1nn(C)c(C)c1-c1nc2c(N[C@H]3[C@@H](C(N)=O)[C@@H]4C=C[C@H]3C4)c(Cl)cnc2[nH]1 [Compound CLI, (1S,2S,3R,4R)-3-[6-Chloro-2-(1,3,5-trimethyl-1H-pyrazol-4-yl)-3H-imidazo[4,5-b]pyridin-7-ylamino]-bicyclo[2.2.1]hept-5-ene-2-carboxylic acid amide]
> 10000	–	> 10000	CC(C)(C)OC(=O)N1CCCC(c2nc3c(N[C@H]4[C@@H](C(N)=O)[C@@H]5C=C[C@H]4C5)c(Cl)cnc3[nH]2)C1 (stereo partly drawn) [Compound XI, 3-[7-((1R,2R,3S,4S)-3-Carbamoyl-bicyclo[2.2.1]hept-5-en-2-ylamino)-6-chloro-3H-imidazo[4,5-b]pyridine-2-yl]-piperidine-1-carboxylic acid tert-butyl ester]
< 100	–	< 100	NC(=O)[C@@H]1[C@H](Nc2c(Br)cnc3[nH]c(-c4ccc(CN5CCOCC5)cc4)nc23)[C@H]2C=C[C@@H]1C2 [Compound LXXX, (1S,2S,3R,4R)-3-[6-Bromo-2-(4-morpholin-4-ylmethyl-phenyl)-3H-imidazo[4,5-b]pyridin-7-ylamino]-bicyclo[2.2.1]hept-5-ene-2-carboxylic acid amide]
